Measurements published in BigSolDB 2.1.

Cl.N[C@@H](Cc1ccccc1)C(=O)OCc1ccccc1
solubility (mole fraction)
Details | 283.15 K | 288.15 K | 293.15 K | 298.15 K | 303.15 K | 313.15 K | 323.15 K
in acetone | 8e-05 | – | 0.000134 | – | 0.000224 | 0.000347 | 0.000511
in acetonitrile | 5.4e-05 | 0.000115 | 0.000188 | 0.000262 | 0.000365 | – | –
in ethanol | 0.00311 | – | 0.00396 | – | 0.00491 | 0.00625 | 0.00832
in ethyl acetate | – | 2.6e-05 | 3.8e-05 | – | 6.3e-05 | 0.000116 | 0.000181
in isobutanol | – | 0.00056 | 0.000879 | – | 0.00121 | 0.00174 | 0.00256
in isopropanol | 0.000417 | – | 0.000588 | – | 0.000882 | 0.00123 | 0.00178
in methanol | 0.0158 | – | 0.0186 | – | 0.0223 | 0.0274 | 0.0324
in n-butanol | 0.0011 | – | 0.0015 | – | 0.00191 | 0.00263 | 0.0039
in n-pentanol | 0.000703 | – | 0.00103 | – | 0.00158 | 0.00213 | 0.00307
in n-propanol | 0.00168 | – | 0.00203 | – | 0.00281 | 0.00386 | 0.00515
in water | 0.000969 | – | 0.0012 | – | 0.0015 | 0.00197 | 0.00266
